Source: ChEMBL document CHEMBL4390657, “Discovery of arylbenzylamines as PDE4 inhibitors with potential neuroprotective effect” (Eur J Med Chem, 2019)
pIC50: −log10 of the molar value. Calls of active or inactive are those of the source. No cut-off for these calls is given here.

How the values were obtained:
[1] = molecular target: T1, 3',5'-cyclic-AMP phosphodiesterase 4B (Homo sapiens, UniProt Q07343); assay: Inhibition of human full length N-terminal GST-tagged PDE4B1 expressed in baculovirus infected Sf9 cells using cAMP as substrate incubated for 1 hr by fluorescence polarization assay
[2] = Inhibition of human N-terminal GST-tagged PDE4D7 (2 to 748 residues) expressed in baculovirus infected Sf9 cells using cAMP as substrate after 1 hr by fluorescence polarization assay
[3] = molecular target: T1, 3',5'-cyclic-AMP phosphodiesterase 4B; assay: Inhibition of human full length N-terminal GST-tagged PDE4B1 expressed in baculovirus infected Sf9 cells using cAMP as substrate incubated for 1 hr by fluorescence polarization assay relative to control
SH-SY5Y [4] = assay: Neuroprotective activity against MPP+-induced cell apoptosis in human SH-SY5Y cells assessed as effect on morphological changes at 30 to 60 uM preincubated for 1 hr followed by MPP+ addition and measured after 48 hrs by PI staining based inverse fluorescent microscopic analysis; assay type: functional
SH-SY5Y [5] = assay: Cytotoxicity against human SH-SY5Y cells assessed as reduction in cell viability at 3.1 to 50 uM incubated for 48 hrs by MTT assay; assay type: cell-based
SH-SY5Y [6] = assay: Neuroprotective activity in human SH-SY5Y cells assessed as reduction in MPP+ induced cytotoxicity at 30 to 60 uM preincubated for 1 hr followed by MPP+ addition and measured after 48 hrs by MTT assay; assay type: functional, cell-based
[7] = Half life in Sprague-Dawley rat at 2 mg/kg, iv by measured up to 24 hrs by LC-MS /MS analysis; assay type: ADME, organism-based; conditions: in vivo
[8] = AUC (0 to infinity) in Sprague-Dawley rat at 2 mg/kg, iv by measured up to 24 hrs by LC-MS /MS analysis; assay type: ADME, organism-based; set-up: dose 2 mg/kg, time infinity, route intravenous; conditions: in vivo
[9] = AUC (0 to t) in Sprague-Dawley rat at 10 mg/kg, po by measured up to 24 hrs by LC-MS /MS analysis; assay type: ADME, organism-based; set-up: time < 24 hr, dose 10 mg/kg, route oral; conditions: in vivo
[10] = Tmax in Sprague-Dawley rat at 2 mg/kg, iv by measured up to 24 hrs by LC-MS /MS analysis; assay type: ADME, organism-based; conditions: in vivo
[11] = Mean residence time (0 to infinity) in Sprague-Dawley rat at 2 mg/kg, iv by measured up to 24 hrs by LC-MS /MS analysis; assay type: ADME, organism-based; conditions: in vivo
[12] = AUC (0 to infinity) in Sprague-Dawley rat at 10 mg/kg, po by measured up to 24 hrs by LC-MS /MS analysis; assay type: ADME, organism-based; set-up: dose 10 mg/kg, time infinity, route oral; conditions: in vivo
[13] = Mean residence time (0 to infinity) in Sprague-Dawley rat at 10 mg/kg, po by measured up to 24 hrs by LC-MS /MS analysis; assay type: ADME, organism-based; conditions: in vivo
[14] = Oral bioavailability in Sprague-Dawley rat at 10 mg/kg by measured up to 24 hrs by LC-MS /MS analysis; assay type: ADME, organism-based; conditions: in vivo
[15] = Half life in Sprague-Dawley rat at 10 mg/kg, po by measured up to 24 hrs by LC-MS /MS analysis; assay type: ADME, organism-based; conditions: in vivo
[16] = Cmax in Sprague-Dawley rat at 2 mg/kg, iv by measured up to 24 hrs by LC-MS /MS analysis; assay type: ADME, organism-based; set-up: dose 2 mg/kg, route intravenous; conditions: in vivo
[17] = Clearance in Sprague-Dawley rat at 2 mg/kg, iv by measured up to 24 hrs by LC-MS /MS analysis; assay type: ADME, organism-based; conditions: in vivo
[18] = Volume of distribution at steady state in Sprague-Dawley rat at 2 mg/kg, iv by measured up to 24 hrs by LC-MS /MS analysis; assay type: ADME, organism-based; conditions: in vivo, read-out: Vdss
[19] = Cmax in Sprague-Dawley rat at 10 mg/kg, po by measured up to 24 hrs by LC-MS /MS analysis; assay type: ADME, organism-based; set-up: dose 10 mg/kg, route oral; conditions: in vivo
[20] = Tmax in Sprague-Dawley rat at 10 mg/kg, po by measured up to 24 hrs by LC-MS /MS analysis; assay type: ADME, organism-based; conditions: in vivo
[21] = AUC (0 to t) in Sprague-Dawley rat at 2 mg/kg, iv by measured up to 24 hrs by LC-MS /MS analysis; assay type: ADME, organism-based; set-up: dose 2 mg/kg, time < 24 hr, route intravenous; conditions: in vivo

T1 sequence (Q07343 whole entry, the tested form may be a part): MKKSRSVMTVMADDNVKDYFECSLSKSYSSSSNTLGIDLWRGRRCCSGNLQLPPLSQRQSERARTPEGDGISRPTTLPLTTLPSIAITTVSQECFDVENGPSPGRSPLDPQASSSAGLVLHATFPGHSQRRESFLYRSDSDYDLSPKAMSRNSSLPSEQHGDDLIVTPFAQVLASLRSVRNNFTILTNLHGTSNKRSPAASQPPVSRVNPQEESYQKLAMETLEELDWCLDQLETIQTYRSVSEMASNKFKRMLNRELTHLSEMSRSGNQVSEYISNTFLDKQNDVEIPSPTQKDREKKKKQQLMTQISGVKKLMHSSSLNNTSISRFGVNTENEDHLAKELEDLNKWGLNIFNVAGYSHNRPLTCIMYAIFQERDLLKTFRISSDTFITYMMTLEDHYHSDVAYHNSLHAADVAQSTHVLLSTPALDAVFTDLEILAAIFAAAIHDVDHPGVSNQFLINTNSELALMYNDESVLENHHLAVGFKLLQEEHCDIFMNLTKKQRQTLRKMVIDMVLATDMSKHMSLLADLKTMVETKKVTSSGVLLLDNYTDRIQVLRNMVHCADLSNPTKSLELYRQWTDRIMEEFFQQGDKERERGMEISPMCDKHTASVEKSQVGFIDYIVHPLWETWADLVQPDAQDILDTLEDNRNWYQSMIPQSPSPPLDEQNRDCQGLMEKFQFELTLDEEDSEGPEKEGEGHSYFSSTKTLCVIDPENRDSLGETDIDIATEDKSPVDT

Row | Compound | pIC50 [1] | pIC50 [2] | also measured
1 | COc1ccc(CN[C@@H](Cc2c[nH]c3ccccc23)C(=O)O)cc1-c1cccc(Cl)c1 | < 4.00 | < 4.00 | 
2 | COc1ccc(CNc2cccnc2)cc1-c1cccc(Cl)c1 | 5.64 | 5.92 | Imax [3]: 100%
3 | COC(=O)c1ccc(NCc2ccc(OC)c(-c3cccc(Cl)c3)c2)cc1 | < 5.00 | < 5.00 | 
4 | COc1ccc(C2CNC(=O)C2)cc1OC1CCCC1 (centres undefined) [ROLIPRAM] |  | 6.52 | 
5 | O=C(Nc1ccccc1Cl)c1ccc(OC(F)F)c(OCC2CC2)c1 | 6.77 | 7.40 | 
6 | COc1ccc(CN2CCC(O)CC2)cc1-c1cccc(Cl)c1 | < 5.00 | < 5.00 | 
7 | COc1ccc(CNc2ccc(Cl)cc2)cc1-c1cccc(Cl)c1 | < 5.00 | < 5.00 | 
8 | COc1ccc(CN[C@@H](Cc2ccccc2)C(=O)O)cc1-c1cccc(Cl)c1 | < 5.00 | < 5.00 | 
9 | COc1ccc(CN2CCOCC2)cc1-c1cccc(Cl)c1 | 5.46 | 5.74 | 
10 | COc1ccc(CN2CCOCC2)cc1-c1cccc(F)c1 | 5.43 | 5.68 | 
11 | Fc1cccc(-c2cc(CNc3cccnc3)cc3c2OCC3)c1 | 6.10 | 5.89 | 
12 | COc1cccc(-c2cc(CNc3cccnc3)ccc2OC)c1 | 6.17 | 5.92 | Activity (SH-SY5Y [4]): Active; Activity (SH-SY5Y [5]): Non-Toxic; Imax [3]: 90%; Activity (SH-SY5Y [6]): Active
13 | FC(F)Oc1ccc(CNc2cccnc2)cc1-c1cccc(Cl)c1 | < 5.00 | < 5.00 | 
14 | COc1ccc(CNc2cccnc2)cc1-c1cccc(F)c1 | 6.47 | 6.42 | half-life [7]: 1.26 h; AUC(0-inf) [8]: 327 ng·h/mL; AUC(0-t) at 24 h [9]: 84.4 ng·h/mL; Tmax [10]: 4.8 min; MRT inf [11]: 0.69 h; AUC(0-inf) [12]: 134 ng·h/mL; MRT inf [13]: 7.61 h; Activity (SH-SY5Y [4]): Active; Activity (SH-SY5Y [5]): Non-Toxic; bioavailability [14]: 8.2%; half-life [15]: 4.32 h; Cmax [16]: 701 ng/mL; clearance [17]: 103 mL/min/kg; Imax [3]: 93%; Vd [18]: 4.35 L/kg; Cmax [19]: 14.7 ng/mL; Tmax [20]: 3.33 h; AUC(0-t) at 24 h [21]: 325 ng·h/mL; Activity (SH-SY5Y [6]): Active
15 | FC(F)Oc1ccc(CN2CCOCC2)cc1-c1cccc(Cl)c1 | 5.39 | 5.68 | 
16 | COc1ccc(CN[C@H](C(=O)O)C(C)C)cc1-c1cccc(Cl)c1 | < 4.00 | < 4.00 | 
17 | Clc1cccc(-c2cc(CNc3cccnc3)cc3c2OCC3)c1 | 6.03 | 5.88 | 
18 | COc1ccc(CNc2ccccn2)cc1-c1cccc(Cl)c1 | < 5.00 | < 5.00 | 
19 | COc1ccc(NCc2ccc(OC)c(-c3cccc(Cl)c3)c2)cn1 | < 5.00 | < 5.00 | 
20 | COc1ccc(NCc2ccc(OC)c(-c3cccc(Cl)c3)c2)cc1 | < 5.00 | < 5.00 | 
21 | COc1ccc(CNc2cccc(N(C)C)c2)cc1-c1cccc(Cl)c1 | < 4.00 | < 4.00 | 
22 | COc1ccc(CN2CCCC(C)C2)cc1-c1cccc(Cl)c1 (centres undefined) | < 5.00 | < 5.00 | 
23 | COc1ccc(CNc2ccc(F)cc2)cc1-c1cccc(Cl)c1 | < 5.00 | < 5.00 | 
